# Reference: patent US5661182A, “Method for lowering oxygen affinity of hemoglobin in redcell suspensions, in whole blood and in vivo” (Virginia Commonwealth University, priority 1995, dated 1997)
# Entries after “also recorded” stand apart in the source; their conditions may differ.
# Tests used:
# [1] = target: hemoglobin in human red blood cells (Homo sapiens, UniProt P68871+P69905); experiment: Calculated oxygen delivery index of human red blood cell suspensions (ΔY); format: cell-based; conditions: human RBC, effector 0.5 mM
# From the text: L3,5 and L3,4,5 were provided by Dr. Lalezari (Montefiore Hospital, New York); RSR-4 [2-[4-[[(3,5-dichloroanilino)carbonyl]methyl]phenoxy]-2-methylpropionic acid]and RSR13 [2-4-[[(3,5- dimethylanilino)carbonyl]methyl]phenoxy]-2-methylpropionic acid] have been synthesized following the procedure described in Randad et al. (J. Med. Chem. 34,752 (1991)). Human serum albumin (HSA), bovine serum albumin (BSA) and 4,4'diisothiocyanatostilbene-2,2'-disulfonate (DIDS) were purchased from Sigma (St. Louis, Mo.). Due to their low solubility in aqueous buffer, 10 mM stock solutions of the compounds were prepared in a slight exccess of sodium bicarbonate and back-titrated to pH 7.4. For example, RSR-4 or RSR-13 was dissolved at 60° C. in a 140 mM NaCl and 50 mM bis-Tris buffer at room temperature upon progressive addition of NaHCO3 to obtain 10 mM stock solutions. The pH was carefully adjusted to 7.4 after complete solubilization and before use of the solutions. Fresh solutions were prepared each week. Stock solutions of DIDS (1 mM) were prepared, in the dark, on the day of the experiments in a pH 7.4 buffer. Human serum albumin (defatted HSA) and bovine serum albumin (BSA) were prepared freshly as 1 mM stock solutions, pH 7.4. Equilibrium Measurements. The allosteric modulation of the effectors on freshly prepared solutions of hemoglobin or red cell suspensions was measured by the change in p50, the partial pressure of oxygen for half-saturation. Oxygen equilibrium curves (OEC) were carried out with the Hemox analyzer (TCS, Southampton, Pa.) under the following conditions: pH 7.4, 140 mM NaCl and 50 mM bis-Tris buffer at 37° C. In all experiments, the concentration of hemoglobin in the red cell suspensions was 20-25 μM hemoglobin tetramer (Hb4) as measured by Drabkin's method (cyanomethemoglobin) at the end of each recording. The final concentration of the allosteric effector in the cuvette was 0.5 mM, resulting in an effector/Hb4 ratio of 20 in the absence of albumin. OEC were also made in the same buffer containing 12.5, 25, 50, and 100 μM HSA (for human red cell suspensions) or BSA (for bovine cell suspensions). The serum albumin experiments were carried out with traces of an antifoaming agent. This agent has no deleterious effect on the red cell suspensions. The molar ratio of albumin to tetrameric hemoglobin was varied from 0.5 (at 12.5 μM HSA) to 4 (at 100 μM HSA); in whole blood this ratio is approximately 0.3 (0.7 mM albumin plus plasma proteins/2.25 mM Hb4). Therefore, the concentration of albumin used in the present studies was always larger relative to tetrameric hemoglobin than that found in whole blood.
# In FIG. 2, curve (1) is the control, curve (2) is the suspension plus 0.5 mM RSR-4, curve (3) is the suspension plus 0.5 mM RSR-4 plus 50 μM HSA, and curve […] is the suspension plus 0.5 mM RSR-4 plus 100 μM HSA. The concentration ratios of albumin/Hb are above those found in vivo. For example, in curve (3) serum albumin is about six times and in curve (4) about twelve times in excess above the concentration ratio of albumin/Hb found in vivo. The vertical lines indicate the physiological pO2 values in the arterial blood (90 mmHg) and in the mixed venous blood (40 mmHg). The change in oxygen saturation between these two lines allows an estimation of the capability of the red blood cells to deliver oxygen to tissues (ΔY (%), as discussed below in conjunction with Table 4).
# In Vivo Estimates for Percent of Oxygen Delivery. Table 4 presents the calculated oxygen delivery index for red blood cell suspensions in the presence or absence of 0.5 mM L3,5 or RSR-4. The experimental conditions for the experiments of Table 4 were the same as those used for Table 1. The oxygen delivery index was calculated from the experimental oxygen binding curves as the difference in hemoglobin oxygen saturation (percent) corresponding to the pO2 in the arterial blood (90 mmHg) and that in the mixed venous blood (40 mMHg). […]
# [2] = tested on: HbA/Yakima red blood cells; experiment: Calculated oxygen delivery index of HbA/Yakima red blood cells (ΔY); format: cell-based, human; conditions: for ΔY (oxygen delivery index): HbA/Yakima RBC, 0.5 mM
# Experimental: Human blood was collected on heparin from healthy nonsmoking donors. Bovine blood was provided by Pr Delpech, INA (Paris-Grignon). Red blood cells were washed three times in isotonic buffer, kept at 4° C., and used within 24 h after sampling. Hemoglobin Yakima, a high-oxygen-affinity variant [α2 β2 99 (G1) Asp>>His], was obtained from a known heterozygous carrier. Fresh Yakima red cells were processed in the same way as described above.
# In Vivo Estimates for Percent of Oxygen Delivery. Table 4 presents the calculated oxygen delivery index for red blood cell suspensions in the presence or absence of 0.5 mM L3,5 or RSR-4. The experimental conditions for the experiments of Table 4 were the same as those used for Table 1. The oxygen delivery index was calculated from the experimental oxygen binding curves as the difference in hemoglobin oxygen saturation (percent) corresponding to the pO2 in the arterial blood (90 mmHg) and that in the mixed venous blood (40 mMHg). HbA/Yakima red blood cells were obtained from a heterozygous carrier of the high-affinity Hb variant.
# [3] = tested on: hemoglobin in rat blood; experiment: In vivo effect in conscious rats: oxygen dissociation curve of blood after 2-h infusion; conditions: for sign of distress: rats, during infusion
# Experimental: In Vivo Studies. The in vivo effect of RSR-4 and RSR-13 was assessed in conscious rats that received (through a chronic femoral vein catheter) an initial 85.7±3.7 mg/kg dose of RSR-4 or 84.0±4.0 mg/kg dose of RSR-13, followed by 85.7±3.7mg/(kg h) RSR-4 or 84.0±4.0 mg/(kg h) RSR13, respectively, for 2 h. The oxygen dissociation curve was measured before infusion with a Hemox analyzer and, after the 2-h infusion, was manually measured with a tonometer and visible spectroscopy to avoid a dilution step (used with the Hemox analyzer) that would disrupt the equilibrium between the drug and erythrocytes. Tonometry was performed at a constant/pCO2 of 40 mmHg at 37° C. The pH of the blood was 7.443±0.012 (n=5) for the RSR-13 experiment and 7.412±0.098 (n=7) for the RSR-4 experiment. Control rats received an infusion of buffer solution with NaHCO3. A slight molar excess of NaHCO3 was used to better solubilize RSR-4.
# Chain of hemoglobin in human red blood cells (P69905 whole entry): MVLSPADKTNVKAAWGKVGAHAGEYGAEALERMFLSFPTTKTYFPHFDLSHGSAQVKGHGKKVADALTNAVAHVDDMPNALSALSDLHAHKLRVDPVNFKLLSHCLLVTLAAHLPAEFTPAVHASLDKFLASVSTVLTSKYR
# Chain of hemoglobin in human red blood cells (P68871 whole entry): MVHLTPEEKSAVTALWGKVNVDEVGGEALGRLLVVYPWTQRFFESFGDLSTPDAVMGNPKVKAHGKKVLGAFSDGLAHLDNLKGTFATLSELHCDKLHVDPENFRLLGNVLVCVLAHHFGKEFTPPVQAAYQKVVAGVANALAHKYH
ΔY (oxygen delivery index) ([1]; 50 μM HSA),ΔY (oxygen delivery index) ([1]; 100 μM HSA),ΔY (oxygen delivery index) ([1]; no HSA),sign of distress [3],Structure (SMILES),ΔY (oxygen delivery index) ([2]; 50 μM HSA),ΔY (oxygen delivery index) ([2]; no HSA),oxygen delivery restoration ([2]; red cells containing 47% Hb Yakima),"p50 ([3]; rats (n=7), 85.7±3.7 mg/kg iv then 85.7±3.7 mg/(kg h) for 2 h, control value 36.4±1.6)","Hill coefficient ([3]; rats (n=7), 85.7±3.7 mg/kg iv then 85.7±3.7 mg/(kg h) for 2 h, initial 2.66±0.13)","Hill coefficient ([3]; rats (n=5), 84 mg/kg then 84 mg/(kg h) for 2 h, initial 2.62±0.10)","p50 ([3]; rats (n=5), 84 mg/kg then 84 mg/(kg h) for 2 h, initial 36.0±2.7)"
30%,25%,42%,,"CC(C)(Oc1ccc(NC(=O)Nc2cc(Cl)cc(Cl)c2)cc1)C(=O)O [L3,5, reference compound]",,,,,,,
39%,34%,41.5%,did not show any sign of distress,"CC(C)(Oc1ccc(CC(=O)Nc2cc(Cl)cc(Cl)c2)cc1)C(=O)O [RSR-4, 2-[4-[[(3,5-dichloroanilino)carbonyl]methyl]phenoxy]-2-methylpropionic acid]",19%,22%,able to restore an almost normal oxygen delivery; also recorded: almost normal oxygen delivery index,60.7±8.1 mmHg,1.74±0.08,,
,,,did not show any sign of distress,Cc1cc(C)cc(NC(=O)Cc2ccc(OC(C)(C)C(=O)O)cc2)c1 [RSR-13],,,,,,1.73±0.08,61.4±5.8 mmHg
